The text below walks through data of paper PMC10224329, “Design, Synthesis, and Antiproliferative Activity of Benzopyran-4-One-Isoxazole Hybrid Compounds” (Molecules, 2023).

The term half-life denotes the time in which the quantity being followed falls by half. High values mean slow decline, low ones rapid decline.

A short description of series [1]: Proteolytic stability in human serum (HPLC). The format is in vitro ADME. The following applies: 37 °C. Here is the method:
These compounds were further explored towards degradation by proteolytic enzymes towards degradation. Compound 5a was investigated for proteolytic stability in the presence of human serum. It was incubated with human serum at 37 °C, and aliquots of the reaction mixture were analyzed via HPLC at different time points up to 2 h. The concentration of Compound 5a was measured by integrating the area under the curve (AUC) and correspondingly calculated from the standard curve of 5a at different concentrations (cf. Supplementary Materials, page no. 81–82).
The HPLC chromatogram of serum incubated with compound 5a for 80 min was illustrated in Figure 5. […]
HPLC analysis was carried out to evaluate the proteolytic stability of selected conjugate 5a in the presence of human serum. First, different concentrations of Compound 5a were analyzed using the analytical HPLC, and a standard curve was plotted for the different concentrations of Compound 5a versus the area under the curve. […] The initial time was recorded, and 100 μL aliquots of the reaction mixture were removed and added to methanol (200 μL) for precipitation of serum proteins in human serum. […] A linear gradient from 10% to 100% acetonitrile/water in 65 min with a flow rate of 1.0 mL/min was used, and the absorbance of the eluting peaks was detected at 254 nm. […]

Series [2] has as its system ABL1, c-Kit, c-Src, CDK2/cyclin A1, CSK, EGFR, mTOR/FRAP1, p38a/MAPK14, PKCa, and PI3K. Put plainly: Protein kinase panel screen, overall. The format is biochemical. The following applies: single dose of 20 μM, all kinases screened. As for the experimental part: Therefore, selected compound 5a was screened against several protein kinases to explore the potential of these hybrid compounds as kinase inhibitors. The screening of compound 5a was performed on a panel of 9 kinases, viz., ABL1, c-Kit, c-Src, CDK2/cyclin A1, CSK, EGFR, mTOR/FRAP1, p38a/MAPK14, PKCa, and PI3K, at a dose of 20 μM. The respective positive controls were used for each kinase, and the kinase reaction was performed at 200 μM ATP concentration for all the kinases except for PI3K, which was performed at 10 µM ATP (Table 2). […] It appeared that compound 5a containing a 3-position substitution with an isoxazole ring and a 4-position with a carbonyl group has a detrimental effect on kinase inhibition. Previously 3-substituted benzopyran compound with a short alkyl chain of urea (NH-CO-NH-Et/Me/iPr) was reported with Abl kinase inhibitory activity in the range of 4–27 μM [36]. […] Due to prominent antiproliferative activity, these compounds may have some other targets for anticancer activity.
Compound 5a was tested at a single dose of 20 μM against 9 kinases, viz., Abl1, c-Kit, c-Src, CDK2/cyclin A1, CSK, EGFR, mTOR/FRAP1, p38a/MAPK14, PKCa, and PI3K using our previously reported protocol in duplicate by Reaction Biology Corporation. […]

Entries after “also recorded” stand apart in the source; their conditions may differ.

Consider `Cc1noc(C)c1C(=O)OCc1coc2ccccc2c1=O` [Compound 5a, (4-Oxo-4H-1-benzopyran-3-yl)methyl 3,5-dimethylisoxazole-4-carboxylate], for which, in series [1] (after 2 h of incubation with human serum), the “degradation on incubation with human serum” value is “completely degraded”. In series [1] (human, human serum (25% v/v in RPMI media), human serum), this compound yielded a half-life at 50 µM of around 13.6 min. Further, in series [2], the “kinase inhibitory activity (in words)” value was “inactive; also recorded: did not show protein tyrosine kinase inhibitory activity”.
